Assay results as given in patent US20240287074A1, “SALTS AND CRYSTALS” (Kinoxis Therapeutics Pty Ltd, priority 2020, published 2024).
Entries after “also recorded” stand apart in the source; their conditions may differ. Counter-ions that a name gives are not always drawn.

How the values were obtained:
[1] = Dynamic / gravimetric vapour sorption (DVS/GVS) hygroscopicity; type: physicochemical
Experimental: Approximately, 10-20 mg of sample was placed into a mesh vapour sorption balance pan and loaded into a DVS Intrinsic dynamic vapour sorption balance by Surface Measurement Systems. The sample was subjected to a ramping profile from 40-90% relative humidity (RH) at 10% increments, maintaining the sample at each step until a stable weight had been achieved (dm/dt 0.004%, minimum step length 30 minutes, maximum step length 500 minutes) at 25° C. After completion of the sorption cycle, the sample was dried using the same procedure to 0% RH and then a second sorption cycle back to 40% RH. Two cycles were performed. The weight change during the sorption/desorption cycles were plotted, allowing for the hygroscopic nature of the sample to be determined. XRPD analysis was then carried out on any solid retained.
Approximately 10-20 mg of sample was placed into a mesh vapour sorption balance pan and loaded into an IGASorp Moisture Sorption Analyser balance by Hiden Analytical. The sample was subjected to a ramping profile from 40-90% relative humidity (RH) at 10% increments, maintaining the sample at each step until a stable weight had been achieved (98% step completion, minimum step length 30 minutes, maximum step length 60 minutes) at 25° C. After completion of the sorption cycle, the sample was dried using the same procedure to 0% RH, and finally taken back to the starting point of 40% RH. Two cycles were performed. The weight change during the sorption/desorption cycles were plotted, allowing for the hygroscopic nature of the sample to be determined.

[2] = Primary salt screen: XRPD pattern after drying and after 40° C./75% RH; type: physicochemical
Experimental: The following procedure was used: • Approximately 30 mg of 1-methyl-1,4,5,10-tetrahydropyrazolo[3,4-b][1,5]benzodiazepine freebase was weighed into 5×1.5 mL glass vials. • 300 μL of selected solvent system was added to each vial to form a mobile slurry, and a beige slurry was observed. • 1.05 (or 0.525 for the hemi experiments) equivalents of acid counterion (see Table 1) was added to each sample and initial observations were recorded. • The samples were temperature cycled between ambient and 40° C. in 4-hour cycles for about 72 hours. • The samples were collected, and observations made. • Samples in which solids were observed were filtered via centrifugation and the solids were loaded onto a multi-well XRPD plate and analyzed by XRPD. • Samples in which no solids were observed were uncapped and left undisturbed to allow evaporation at ambient temperature.

[3] = Salt disproportionation studies in deionized water; type: physicochemical; conditions: about 24 hours
Experimental: (§1) The following procedure was used during the salt disproportionation studies: • Approximately 20 mg of phosphate form 1 (Example 3) and L-tartrate form 1 (Example 5) were weighed into 2 mL glass vials. • Deionized water was added to each sample in 100 μL aliquots until a mobile slurry was observed. • The slurries were agitated at ambient temperature for about 24 hours. • The slurries were collected and filtered via centrifugation. • The isolated solids were analyzed by XRPD. • The pH of the mother liquors were recorded.

[4] = Hydration studies in methanol/water mixtures; type: physicochemical; conditions: MeOH/water mixtures, water activity 0.2, 0.6, 0.8, about 24 hours
Experimental: as §1, with “the hydration” for “the salt disproportionation”, “• Selected methanol/deionized” for “• Deionized”, “water mixtures (see Table 5) were” for “water was”

[5] = tested on: C57BL/6 mouse model of opioid withdrawal; assay: Naloxone precipitated oxycodone withdrawal-induced jumping; type: in vivo; conditions: 7.3 mg/kg FBE i.p., C57BL/6 mice, 30 min session, vs OXY_VEH
Experimental: Two cohorts of adult male C57BL/6 mice were run assessing the effects of 7.3 mg/kg freebase equivalent (FBE) IP of the compound of the invention in the dihydrochloride salt form (CMPD1-2HCL) and the phosphate form 1 (CMPD1-PO4) on naloxone precipitated withdrawal-induced jumping.
The first cohort of mice (N=30) were split into the following conditions: • (1) Vehicle, 0 mg/kg (n=10); • (2) oxycodone, 0 mg/kg compound of the invention FBE in 2HCL salt form (n=10); • (3) oxycodone, 7.3 mg/kg compound of the invention FBE in 2HCL salt form (n=10).
The second cohort of mice (N=24) were split into the following conditions: • (1) Vehicle, 0 mg/kg (n=8); • (2) oxycodone, 0 mg/kg compound of the invention FBE in PO4 salt form (n=8); • (3) oxycodone, 7.3 mg/kg compound of the invention FBE in PO4 salt form (n=8).
Mice in the oxycodone conditions received i.p. injections of oxycodone for 5 days according to the schedule and doses set out in Table 8. The morning and afternoon doses were separated by 7 h. Mice in the vehicle condition received injections of vehicle saline instead of oxycodone. […]
Testing involved placing mice individually into a 20 (I)×20 (w)×30 (h) cm arena for 30 min. […] Number of jumps were scored from the videos by an experienced experimenter blind to conditions.
Data were analysed by SPSS using oneway ANOVA and planned contrasts.

hygroscopicity ([1]; DVS, 25° C.): slightly hygroscopic
DVS mass increase ([1]; at 90% RH): about 0.4%
Post-Drying (XRPD pattern) ([2]; oven at 40° C. for about 24 hours, listed as Phosphate pattern 1): Pattern 1
Comments (stability) ([2]; salt screen summary): Good
Post 40° C./75% RH (XRPD pattern) ([2]; stability chamber at 40° C./75% RH for about 24 hours, listed as Phosphate pattern 1): Pattern 1
change in XRPD pattern ([3]; material slurried in water): No change in XRPD pattern
change in XRPD pattern [4]: No change in XRPD pattern
Compound: Cn1ncc2c1Nc1ccccc1NC2 [Phosphate form 1, phosphoric acid addition salt of 1-methyl-1,4,5,10-tetrahydropyrazolo[3,4-b][1,5]benzodiazepine]
change in form by XRPD post-DVS analysis [1]: No evidence of form changes or hydrate formation
thermal stability and hygroscopicity ([2]; conclusion of salt screen): acceptable thermal stability and hygroscopicity
salt disproportionation ([3]; slurry in deionized water, ambient temperature): Salt disproportionation was not observed; also recorded: No evidence
hydrate formation [4]: Hydrate formation was not observed; also recorded: No evidence
oxycodone withdrawal-induced jumping [5]: significantly inhibited
